Consider 1 compound from patent US20240147991A1, “Diphenyl Tablets and Methods of Preparing the Same” (Ideaz, LLC, priority 2018, published 2024).

This data set can be described thus: Evaluation of sublimation of diphenyl tablets versus granules exposed to air. It counts as physicochemical. The following applies: 22 days; 1.06 grams substance at start; empty tray 1 3.715 grams (tablets), empty tray 2 3.650 grams (granules). An excerpt: Two trays were fashioned from equal sized sheets of aluminum foil and tape. The trays were each weighed after fashioning, with tray 1 weighing 3.715 grams and tray 2 weighing 3.650 grams (a weight difference between trays of 0.065 grams). Two compressed diphenyl tablets handled with tweezers were first weighed at a total weight of 1.06 grams and then placed into tray 1. An equal amount of diphenyl granules (i.e., having a total weight of 1.06 grams) was spooned into tray 2.
Both trays were exposed to air over 22 days and re-weighed. Tray 1 weighed 4.45 grams and tray 2 weighed 3.99 grams. After adjusting the weight difference of the trays by subtracting 0.065 grams from tray 1, it can be seen that the diphenyl tablets sublimed at a slower rate than the diphenyl granules by retaining 8.88 weight % more than the granules after being exposed to air for 22 days.

In the case of `c1ccc(-c2ccccc2)cc1` [diphenyl granules, diphenyl], the “Weight of tray with substance after exposure to air” value is given as 3.99 grams.
